Columns and labels:
Assay type in all cases: physicochemical
[1] = complexation of ligands with ^89Zr, yield by ITLC-SG; conditions: 7.5 nmol ligand, pH 7
Description: All solutions described below were prepared with de-ionized water purified through a Chelex column prior to use. Stock solutions of ^89Zr at pH 7 were prepared as follow: to 450 μL of the ^89Zr solution in oxalic acid were added 450 μL of a 1M Na2CO3 solution and the pH was adjusted to 7 by addition of small aliquots of a 0.1 M Na2CO3 or 0.1 M HCl. 450 μL of water containing 3% bovine serum albumin were then added. To 45 μL of stock solution (˜1.3 MBq of ^89Zr in a typical experiment) were added 7.5 nmol (5 μL) of L5, L6, L7, C5, C6, or C7 in DMSO or the natural siderophore desferrioxamine B (DFB) mesylate in de-ionized water. These solutions were incubated at desired temperatures and time of reaction and analyzed by ITLC-SG using a 50 mM EDTA (ethylenediaminetetraacetic acid) solution adjusted to pH=7 in de-ionized water as eluant, and analyzed with a Typhoon 8600 scanner (GE Healthcare) in phosphorimaging mode. The percentage of the activity bound to the ligand after TLC was calculated by converting the TLC scan into a chromatogram and integrating the peak corresponding to the spot at the bottom of the TLC. Activity ratios were averaged out of a minimum of 2 TLCs for each condition. The influence of time and temperature on the complexation yield of ^89Zr by L5, L6, L7, C5, C6 and C7 and DFB is shown in Table 1. […]

[2] = in vitro stability of ^89Zr complexes in 0.1 M sodium phosphate buffer pH 6.5; conditions: 0.1 M sodium phosphate buffer pH 6.5, 10% DMSO, 37° C.
Description: (§1) 10 μL of each ^89Zr complex solution prepared as described above in Example 14 were incubated for 7 days in 40 μL Phosphate-Buffered Saline (PBS) (pH 7.4-10% DMSO) at 20° C., 40 μL sodium phosphate buffer (0.1 M, pH 6.5-10% DMSO) at 37° C., 40 μL human serum at 37° C., or 40 μL 50 mM EDTA (pH 7, 10% DMSO) at 37° C., respectively, and analyzed using the chromatographic system described in the above section after 1 h, 3 h, 1, 2, 3, 4, 5, 6, and 7 days.

[3] = in vitro stability of ^89Zr complexes in 50 mM EDTA (challenge); conditions: pH 7, 37° C.; for ^89Zr remaining complexed after a week: 7 days (n=4), FIG. 13
Description: FIG. 13 is a graph illustrating the stability of the ^89Zr-complexes in 50 mM EDTA at pH 7 and 37° C. over 7 days (n=4).
as §1

## CC(=O)N(O)CCCCCNC(=O)CCC(=O)N(O)CCCCCNC(=O)CCC(=O)N(O)CCCCCN [DFB, desferrioxamine B, reference compound]
[1]; 20° C., 30 min
  complexation yield of ^89Zr: >99%
[1]; 20° C., 120 min
  complexation yield of ^89Zr: >99%
[1]; 50° C., 30 min
  complexation yield of ^89Zr: >99%
[1]; 80° C. (time not given)
  complexation yield of ^89Zr: >99%
[2]; 1 Day
  Fraction of intact complex: 99%
[2]; 4 Days
  Fraction of intact complex: 98%
[2]; 7 Days
  Fraction of intact complex: 98%

## CCCCC(=O)N(O)CCCCCC(=O)N(O)CCCCCC(=O)N(O)CCCCCC(=O)N(O)CCC [Ligand L5]
[1]; 20° C., 30 min
  complexation yield of ^89Zr: 60%
[1]; 20° C., 120 min
  complexation yield of ^89Zr: 71%
[1]; 50° C., 30 min
  complexation yield of ^89Zr: 73%
[1]; 80° C. (time not given)
  complexation yield of ^89Zr: 87.3%
[2]; 1 Day
  Fraction of intact complex: 93%
[2]; 4 Days
  Fraction of intact complex: 89%
[2]; 7 Days
  Fraction of intact complex: 77%

## O=C1CCCCCCCN(O)C(=O)CCCCCCCN(O)C(=O)CCCCCCCN(O)C(=O)CCCCCCCN1O [Ligand C7]
[1]; 20° C., 30 min
  complexation yield of ^89Zr: 92%
[1]; 20° C., 120 min
  complexation yield of ^89Zr: >99%
[1]; 50° C., 30 min
  complexation yield of ^89Zr: >99%
[1]; 80° C. (time not given)
  complexation yield of ^89Zr: >99%
[2]; 1 Day
  Fraction of intact complex: >99%
[2]; 4 Days
  Fraction of intact complex: 99%
[2]; 7 Days
  Fraction of intact complex: 99%
[3]
  ^89Zr remaining complexed after a week: 87±3%

## CCCCCC(=O)N(O)CCCCCCC(=O)N(O)CCCCCCC(=O)N(O)CCCCCCC(=O)N(O)CCC [Ligand L6]
[1]; 20° C., 30 min
  complexation yield of ^89Zr: 82%
[1]; 20° C., 120 min
  complexation yield of ^89Zr: 95%
[1]; 50° C., 30 min
  complexation yield of ^89Zr: 96%
[1]; 80° C. (time not given)
  complexation yield of ^89Zr: >99%
[2]; 1 Day
  Fraction of intact complex: 97%
[2]; 4 Days
  Fraction of intact complex: 94%
[2]; 7 Days
  Fraction of intact complex: 94%

## O=C1CCCCCN(O)C(=O)CCCCCN(O)C(=O)CCCCCN(O)C(=O)CCCCCN1O [Ligand C5]
[1]; 20° C., 30 min
  complexation yield of ^89Zr: 17%
[1]; 20° C., 120 min
  complexation yield of ^89Zr: 22%
[1]; 50° C., 30 min
  complexation yield of ^89Zr: 23%
[1]; 80° C. (time not given)
  complexation yield of ^89Zr: 29%
[2]; 1 Day
  Fraction of intact complex: 69%
[2]; 4 Days
  Fraction of intact complex: 46%
[2]; 7 Days
  Fraction of intact complex: 42%
[3]
  time of release of ~50% of ^89Zr: within the first minutes
  ^89Zr remaining complexed after a week: nearly none

## CCCCCCC(=O)N(O)CCCCCCCC(=O)N(O)CCCCCCCC(=O)N(O)CCCCCCCC(=O)N(O)CCC [Ligand L7]
[1]; 20° C., 30 min
  complexation yield of ^89Zr: 88%
[1]; 20° C., 120 min
  complexation yield of ^89Zr: >99%
[1]; 50° C., 30 min
  complexation yield of ^89Zr: >99%
[1]; 80° C. (time not given)
  complexation yield of ^89Zr: >99%
[2]; 1 Day
  Fraction of intact complex: 99%
[2]; 4 Days
  Fraction of intact complex: 98%
[2]; 7 Days
  Fraction of intact complex: 98%

## O=C1CCCCCCN(O)C(=O)CCCCCCN(O)C(=O)CCCCCCN(O)C(=O)CCCCCCN1O [Ligand C6]
[1]; 20° C., 30 min
  complexation yield of ^89Zr: 77%
[1]; 20° C., 120 min
  complexation yield of ^89Zr: 79%
[1]; 50° C., 30 min
  complexation yield of ^89Zr: 92%
[1]; 80° C. (time not given)
  complexation yield of ^89Zr: 92%
[2]; 1 Day
  Fraction of intact complex: 89%
[2]; 4 Days
  Fraction of intact complex: 79%
[2]; 7 Days
  Fraction of intact complex: 61%
[3]
  time of release of ~50% of ^89Zr: a single day
  ^89Zr remaining complexed after a week: 32±4%

From patent US10137212B2, “Tetrahydroxamate chelators of zirconium89 and niobium90 for use in diagnostic applications” (priority 2013, dated 2018)
